Measured values from patent publication USRE42376E1, “Substituted 3-cyanoquinolines” (Wyeth Holdings Corporation, priority 1998, dated 2011).
Values after ≈ are worked out from the molar mass of the structure shown. Counter-ions that a name gives are not always drawn.

How the values were obtained:
[1] = molecular target: Epithelial Cell Kinase (ECK) (Homo sapiens, UniProt P29317); assay: Inhibition of Epithelial Cell Kinase (ECK); format: biochemical
Method: In this standard pharmacological test procedure, a biotinylated peptide substrate is first immobilized on neutravidin-coated microtiter plates. The test drug, the Epithelial Cell Kinase (ECK), Mg^++, sodium vanadate (a protein tyrosine phosphatase inhibitor), and an appropriate buffer to maintain pH (7.2) are then added to the immobilized substrate-containing microtiter wells. ATP is then added to initiate phosphorylation. After incubation, the assay plates are washed with a suitable buffer leaving behind phosphorylated peptide which is exposed to horse radish peroxidase (HRP)-conjugated anti-phosphotyrosine monoclonal antibody. The antibody-treated plates are washed again and the HRP activity in individual wells is quantified as a reflection of degree of substrate phosphorylation. […] Multiple entries for a given compound indication it was tested multiple times.

[2] = molecular target: T1, recombinant human MEK 1 (MAPKK) and human ERK2 (MAPK) (Homo sapiens, UniProt P28482+Q02750); assay: Mitogen Activated Protein Kinase (MAPK) coupled assay (Mek-Erk); format: biochemical; conditions: separate entries = repeat tests
T1 construct: The recombinant enzymes used were prepared as GST fusion proteins of human ERK 2 and human MEK 1
T1 sequence (Q02750 whole entry, the tested form may be a part): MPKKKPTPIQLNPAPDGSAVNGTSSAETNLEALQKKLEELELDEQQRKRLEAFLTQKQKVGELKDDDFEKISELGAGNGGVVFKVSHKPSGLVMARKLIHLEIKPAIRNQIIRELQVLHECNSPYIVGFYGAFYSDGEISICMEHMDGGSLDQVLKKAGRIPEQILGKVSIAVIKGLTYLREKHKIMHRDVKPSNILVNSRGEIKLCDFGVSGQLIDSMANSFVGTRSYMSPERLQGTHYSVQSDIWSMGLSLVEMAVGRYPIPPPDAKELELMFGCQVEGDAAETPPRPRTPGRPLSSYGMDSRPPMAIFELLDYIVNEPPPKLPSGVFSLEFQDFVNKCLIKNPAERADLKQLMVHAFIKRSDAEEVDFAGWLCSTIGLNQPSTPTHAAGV
T1 sequence (P28482 2-360): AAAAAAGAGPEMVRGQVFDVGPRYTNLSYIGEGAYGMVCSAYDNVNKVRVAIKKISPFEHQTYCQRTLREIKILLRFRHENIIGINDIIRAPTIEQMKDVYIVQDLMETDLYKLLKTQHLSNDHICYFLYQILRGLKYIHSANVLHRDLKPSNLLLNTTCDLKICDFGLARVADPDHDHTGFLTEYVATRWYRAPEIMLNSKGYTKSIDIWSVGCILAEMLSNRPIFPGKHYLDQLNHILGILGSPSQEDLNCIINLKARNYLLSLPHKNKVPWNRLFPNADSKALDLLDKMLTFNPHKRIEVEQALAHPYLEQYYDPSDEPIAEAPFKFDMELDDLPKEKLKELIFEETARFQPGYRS
Method: To evaluate inhibitors of the MAP (mitogen activated protein) kinase a two component coupled standard pharmacological test procedure, which measures phosphorylation of a serine/threonine residue in an appropriate sequence in the substrate in the presence and absence of a putative inhibitor, was used. Recombinant human MEK 1 (MAPKK) was first used to activate recombinant human ERK2 (MAPK) and the activated MAPK (ERK) was incubated with substrate (MBP peptide or MYC peptide) in the presence of ATP, Mg^+2 and radiolabeled ^33P ATP. The phosphorylated peptide was captured on a P 81 phosphocellulose filter (paper filter or embedded in microtiter plate) washed and counted by scintillation methods. […]
The reaction was run as follows in 50 mM Tris kinase buffer, pH 7.4 in a reaction volume of 50 ul. […] The filters or MTP were briefly air dried before addition of scintillant and samples were counted in the appropriate scintillation counter set up for reading ^33P isotope. […]
The raw data was captured as cpm. […] Mean cpm data was tabulated by group and % inhibition by a test compound was calculated as (corrected cpm control-corrected. cpm sample/control) X 100=% inhibition. […] The results obtained for representative compounds of this invention are listed in TABLE 2 where there may be separate entries for the same compound; this is an indication that the compound was evaluated more than one time.

[3] = test system: Human Epidermoid Tumors (A431); assay: In vivo inhibition of the growth of human epidermoid tumors (A431) in mice; parameters: species or system BALB/c nu/nu female mice; conditions: for S/T = # of Survivors/# of Treated: Day +28 post tumor staging
Method: Human epidernoid carcinoma cells A-431 (American Type Culture Collection, Rockville, Md. #CRL-155) were grown in vitro as described above. A unit of 5×10^6 cells were injected SC into mice. […] Control animals received no drug. […] The % T/C (Tumor/Control) is determined by dividing the relative tumor growth of the treated group by the relative tumor growth of the placebo group and multiplying by 100.

[4] = test system: MDAMB435; assay: Inhibition of cancer cell growth as measured by cell number, MDAMB435; format: cell-based, Human; conditions: 48 hours exposure, Sulforhodamine B
Method: (§1) Human tumor cell lines were plated in 96-well plates (250 μl/well, 1-6×10^4 cells/ml) in RPMI 1640 medium, containing 5% FBS (Fetal Bovine Serum). […] After 48 hours exposure to test compounds, cells were fixed with trichloroacetic acid, and stained with Sulforhodamine B. After washing with trichloroacetic acid, bound dye was solubilized in 10 mM Tris base and optical density was determined using plate reader. Under conditions of the assay the optical density is proportional to the number of cells in the well. […] The test procedure is described in details by Philip Skehan et. al, J.Natl. Canc. Inst., 82, 1107-1112 (1990). […] Information about some of the cell lines used in these test procedures is available from the American Type Tissue Collection: Cell Lines and Hybridomas, 1994 Reference Guide, 8th Edition.

[5] = test system: SW620; assay: Inhibition of cancer cell growth as measured by cell number, SW620; format: cell-based, Human; conditions: 48 hours exposure, Sulforhodamine B
Method: as §1

[6] = test system: A431; assay: Inhibition of cancer cell growth as measured by cell number, A431; format: cell-based, Human; conditions: 48 hours exposure, Sulforhodamine B
Method: as §1

[7] = test system: SKBR3; assay: Inhibition of cancer cell growth as measured by cell number, SKBR3; format: cell-based, Human; conditions: 48 hours exposure, Sulforhodamine B
Method: as §1

[8] = test system: 3T3; assay: Inhibition of cell growth as measured by cell number, 3T3; format: cell-based; conditions: 48 hours exposure, Sulforhodamine B
Method: as §1

[9] = test system: Her2/3T3; assay: Inhibition of cell growth as measured by cell number, Her2/3T3; format: cell-based; conditions: 48 hours exposure, Sulforhodamine B
Method: as §1

Sequence of Epithelial Cell Kinase (ECK) (P29317 24-976, species assumed): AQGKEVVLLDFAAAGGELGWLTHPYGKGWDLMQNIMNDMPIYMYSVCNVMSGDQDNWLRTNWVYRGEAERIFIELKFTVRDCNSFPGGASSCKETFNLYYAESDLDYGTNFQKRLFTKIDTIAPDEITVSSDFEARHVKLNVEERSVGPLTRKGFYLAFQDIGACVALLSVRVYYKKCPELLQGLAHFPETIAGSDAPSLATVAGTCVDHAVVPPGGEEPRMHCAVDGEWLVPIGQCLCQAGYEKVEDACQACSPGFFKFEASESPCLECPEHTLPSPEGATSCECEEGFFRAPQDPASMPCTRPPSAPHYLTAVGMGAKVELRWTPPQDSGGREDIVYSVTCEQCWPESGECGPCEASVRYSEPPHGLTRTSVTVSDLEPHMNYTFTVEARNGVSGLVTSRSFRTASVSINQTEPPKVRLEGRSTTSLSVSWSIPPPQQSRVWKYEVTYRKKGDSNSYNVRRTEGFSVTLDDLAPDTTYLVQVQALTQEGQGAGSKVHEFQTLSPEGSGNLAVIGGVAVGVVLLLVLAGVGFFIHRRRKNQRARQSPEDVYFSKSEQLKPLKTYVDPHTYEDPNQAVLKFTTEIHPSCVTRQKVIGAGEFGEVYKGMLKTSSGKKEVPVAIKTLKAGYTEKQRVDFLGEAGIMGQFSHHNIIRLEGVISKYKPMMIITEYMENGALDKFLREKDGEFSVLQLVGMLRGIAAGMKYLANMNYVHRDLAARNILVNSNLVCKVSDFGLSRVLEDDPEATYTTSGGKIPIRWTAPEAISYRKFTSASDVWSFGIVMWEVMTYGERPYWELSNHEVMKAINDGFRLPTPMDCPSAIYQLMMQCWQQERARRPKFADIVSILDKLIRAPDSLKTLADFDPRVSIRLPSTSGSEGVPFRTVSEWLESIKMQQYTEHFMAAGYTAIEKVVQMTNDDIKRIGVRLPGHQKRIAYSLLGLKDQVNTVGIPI

Work on `COc1cc2ncc(C#N)c(Nc3ccc(F)c(Cl)c3)c2cc1N1CC1` yielded a melting point of 197 to 199 °C.
Work on `COCCN(CC#CC(=O)Nc1ccc2ncc(C#N)c(Nc3cccc(Br)c3)c2c1)CCOC` [Example 75, N-[4-[(3-Bromophenyl)amino]-3-cyano-6-quinolinyl]-4-(bis-(2-methoxyethyl)amino)-2-butynamide] yielded an IC50 [1] of over 37.3 µM and a melting point of 98 to 101 °C.
For `COCCN(C)CC#CC(=O)Nc1ccc2ncc(C#N)c(Nc3cccc(Br)c3)c2c1` [Example 76, N-[4-[(3-Bromophenyl)amino]-3-cyano-6-quinolinyl]-4-(N-methoxyethyl-N-methylamino)-2-butynamide], the IC50 [1] was over 40.6 µM and the melting point was 95 °C (dec.).
Compound `C=CCN(C)CC#CC(=O)Nc1ccc2ncc(C#N)c(Nc3cccc(Br)c3)c2c1` [Example 77, N-[4-[(3-Bromophenyl)amino]-3-cyano-6-quinolinyl]-4-(N-allyl-N-methylamino)-2-butynamide] has a melting point of 133 to 135 °C.
`COC[C@@H]1CCCN1CC#CC(=O)Nc1ccc2ncc(C#N)c(Nc3cccc(Br)c3)c2c1` [Example 79, 4-((2S)-2-Methoxymethylpyrrolidin-1-yl)but-2-ynoic Acid[4-(3-bromophenylamino)-3-cyanoquinolin-6-yl]amide] gave an IC50 [1] of over 38.6 µM and an IC50 [2] of 80 µM.
Compound `CCOc1c(Nc2ccc3ncc(C#N)c(Nc4cccc(Br)c4)c3c2)c(=O)c1=O` [Example 85, 4-(3-Bromo-phenylamino)-6-(2-ethoxy-3,4-dioxo-cyclobut-1-enylamino)-quinoline-3-carbonitrile] has an IC50 [1] of over 21.6 µM.
For `COCCN(C)CC=CC(=O)Nc1cc2c(Nc3ccc(F)c(Cl)c3)c(C#N)cnc2cc1OC` [Example 89, 4-[(2-Methoxy-ethyl)-methyl-amino]-but-2-enoic Acid[4-(3-chloro-4-fluoro-phenylamino)-3-cyano-7-methoxy-quinolin-6-yl]-amide Dihydrochloride], the “S/T = # of Survivors/# of Treated” value ([3]; Table 5, 10 mg/kg/dose PO days 1 through 10) was 4/5, the “S/T = # of Survivors/# of Treated” value ([3]; Table 5, 40 mg/kg/dose PO days 1 through 10) was 5/5 and the “inhibition of tumor growth in vivo (in words)” value ([3]; given orally at 40 mg/Kg and 10 mg/Kg) was “effective inhibitor of tumor growth in vivo”.
In the case of `COC[C@@H]1CCCN1CC=CC(=O)Nc1cc2c(Nc3ccc(F)c(Cl)c3)c(C#N)cnc2cc1OC.Cl.Cl` [Example 90, (S)-4-(2-Methoxymethyl-pyrrolidin-1-yl)-but-2-enoic Acid[4-(3-chloro-4-fluoro-phenylamino)-3-cyano-7-methoxy-quinolin-6-yl]-amide dihydrochloride], the “IC50 cell growth MDAMB435” value [4] is reported as 1.74 µg/mL, the “IC50 cell growth SW620” value [5] is reported as 1.24 µg/mL and the “IC50 cell growth A431” value [6] is reported as 0.234 µg/mL. The “IC50 cell growth SKBR3” value [7] was 0.148 µg/mL, the “IC50 cell growth 3T3” value [8] was 2.1 µg/mL and the “IC50 cell growth Her2/3T3” value [9] was 0.329 µg/mL.
For `COc1cc2ncc(C#N)c(Nc3ccc(F)c(Cl)c3)c2cc1NC(=O)C=CCN1CCC2(CC1)OCCO2` [Example 92, 4-(1,4-Dioxa-8-aza-spiro[4.5]dec-8-yl)-but-2-enoic Acid[4-(3-chloro-4-fluoro-phenylamino)-3-cyano-7-methoxy-quinolin-6-yl]-amide], the “IC50 cell growth MDAMB435” value [4] was 3.32 µg/mL (≈ 6.01 µM), the “IC50 cell growth SW620” value [5] was 2.51 µg/mL (≈ 4.55 µM) and the “IC50 cell growth A431” value [6] was 0.283 µg/mL (≈ 0.513 µM). For the same compound, the “IC50 cell growth SKBR3” value [7] was 0.188 µg/mL (≈ 0.341 µM), the “IC50 cell growth 3T3” value [8] was 2.79 µg/mL (≈ 5.05 µM) and the “IC50 cell growth Her2/3T3” value [9] was 0.35 µg/mL (≈ 0.634 µM). For the same compound, the “S/T = # of Survivors/# of Treated” value ([3]; Table 4, 10 mg/kg/dose PO days 1 through 10) was 5/5, the “S/T = # of Survivors/# of Treated” value ([3]; Table 4, 40 mg/kg/dose PO days 1 through 10) was 5/5 and the “inhibition of tumor growth in vivo (in words)” value ([3]; given orally at 40 mg/Kg) was “effective inhibitor of tumor growth in vivo”.
